Values quoted from earlier work as cited in PMC9091901 (Journal of Pharmaceutical Analysis, 2021).

Settings: octanol-water partition coefficient; ref DrugBank database

SMILES | log P
O=C(O)c1cccc(C(=O)O)n1 [2,6-pyridinedicarboxylic acid] | −0.44
O=c1cc(O)c2ccccc2o1 [4-hydroxycoumarin] | 1.01
NCC[C@H](O)C(=O)N[C@@H]1C[C@H](N)[C@@H](O[C@H]2O[C@H](CN)[C@@H](O)[C@H](O)[C@H]2O)[C@H](O)[C@H]1O[C@H]1O[C@H](CO)[C@@H](O)[C@H](N)[C@H]1O [Amikacin] | −3.20
CCN(CC)Cc1cc(Nc2ccnc3cc(Cl)ccc23)ccc1O [Amodiaquine] | 3.70
CC(C)(N)Cc1ccc(Cl)cc1 [Chlorphentermine] | 2.60
CCOC(=O)C(C)(C)Oc1ccc(Cl)cc1 [Clofibrate] | 3.30
O=c1[nH]c2ccccc2n1CCCN1CCC(n2c(=O)[nH]c3cc(Cl)ccc32)CC1 [Domperidone] | 3.90
CN1C(=O)NC(=O)C(C)(C2=CCCCC2)C1=O (centres unmarked) [Hexobarbital] | 1.98
CC1Cc2ccccc2N1NC(=O)c1ccc(Cl)c(S(N)(=O)=O)c1 (centres unmarked) [Indapamide] | 2.52
CCOC(=O)C1=C(C)NC(C)=C(C(=O)OC)C1c1cccc([N+](=O)[O-])c1 (centres unmarked) [Nitrendipine] | 2.88
CC(COc1ccccc1)N(CCCl)Cc1ccccc1 (centres unmarked) [Phenoxybenzamine] | 4.70
CCN(CC)CCOC(=O)c1ccc(N)cc1 [Procaine] | 2.14
CC(C)NCC(O)c1ccc(NS(C)(=O)=O)cc1 (centres unmarked) [Sotalol] | −0.40
CC(C)(C)c1cc(O)ccc1O [Tert-butylhydroquinone] | 2.91
